Measurements taken from patent US11478505B2, “Compositions of ixabepilone” (R-Pharm US Operating LLC, priority 2020, dated 2022).

Experiments:
[1] = cited from earlier work
[2] = test system: MCF7 Human Breast Adenocarcinoma; assay: cytotoxicity, cell viability count after 96 h of treatment; assay type: cell-based; details: 40 nM, trypan blue
Description: (§1) After 96 hours of treatment, cells were counted for viability.
(§2) Materials and Equipment: Eagle's Minimum Essential Media (ATCC No. 30-2003); F-12K Media (ATCC No. 30-2008); Fetal Bovine Serum (ATCC No. 30-2020); Penicillin/Streptomycin (Thermo Fisher No. 15-140-122); Human Recombinant Insulin 0.01 mg/mL (Sigma No. 19278); Trypsin (ATCC No. 25-200-072); Phosphate Buffered Saline (Corning from Thermo Fisher No. 21040CM); Hemocytometer (Hausser from Fischer No. 02-671-6); Trypan blue (Gibco No. 15250061); p100 tissue culture dishes (Falcon-Corning No. 08-772E). Ixabepilone (Lot 3L7304N) was provided by R-Pharm US. […] Saline control was phosphate-buffered 150 mM NaCl solution.
(§3) Cells were rapidly thawed in a water bath at 37° C. and resuspended in appropriate media before being transferred to 60 mm or 100 mm tissue culture dishes. A549 cells were maintained in F12-K media, supplemented with 10% fetal bovine serum, and 1% penicillin/streptomycin. MCF7 cells were maintained in Eagle's Minimum Essential media, supplemented with 10% fetal bovine serum, 1% penicillin/streptomycin, and 0.01 mg/mL insulin. All cells were passaged at least three times before treatment. […] Saline was administered at the equivalent volume used for the ixabepilone treatment for each respective cell line. At 96 h, cells were trypsinized and harvested and counted with trypan blue on a hemocytometer.

[3] = test system: A549 Human Lung Carcinoma; assay: as above; assay type: cell-based; details: 20 nM, trypan blue
Description: as §1, §2, §3

C/C(=C\c1csc(C)n1)[C@@H]1C[C@@H]2O[C@]2(C)CCC[C@H](C)[C@H](O)[C@@H](C)C(=O)C(C)(C)[C@@H](O)CC(=O)N1 [ixabepilone, (1S,3S,7S,10R,11S,12S,16R)-7,11dihydroxy-8,8,10,12,16-pentamethyl-3-[(1E)-1-methyl-2-(2-methyl-4-thiazolyl)ethenyl]17-oxa-4-azabicyclo[14.1.0] heptadecane-5,9-dione]
tolerability ([1]; doses of 0.1, 1.0 or 2.0 mg/kg, weekly IV, 5 doses): generally well tolerated
no observed adverse effect level (NOAEL) ([1]; weekly intravenous dosing for one month (5 doses)): 0.1 mg/kg
average cell viability count [2]: 70×10^4
average cell viability count [3]: 106×10^4
